Measurements from patent US12257287B2, “Glucagon-derived peptide and use thereof” (Tianjin Institute of Pharmaceutical Research Co., Ltd., priority 2018, dated 2025).
Numbered stars: 1 amine (or outer) side, 2 acyl side, 3 side chain; on linkers, the order of the positions; unused ones are H or OH. Square brackets hold non-standard residues; d marks the D form. Side chains are listed from the residue outwards. Peptide text beside a SMILES is read from it. * marks the point of attachment. C20 diacid = O=C(O)CCCCCCCCCCCCCCCCCCC(=O)*; C18 diacid = O=C(O)CCCCCCCCCCCCCCCCC(=O)*; γGlu = O=C(O)[C@H](CCC(=O)[*:2])N[*:1]; AEEA = NCCOCCOCC(=O)O; Aib = CC(C)(N)C(=O)O

Target: T1, GC receptor (Homo sapiens, UniProt P47871)
T1 construct: expressed in transfected cells; host or cells: HEK293 cells
Experiment: GC receptor mediated cAMP production in vitro (HEK293 cells transfected with GC receptor)
Format: cell-based
Details: 20 min at 37° C., read-out: GCGR (nM EC50)
Text: The medium was removed, the cells were lysed, and cAMP values were detected referring to the detection method described for the assay kit.

T1 sequence (P47871 26-477): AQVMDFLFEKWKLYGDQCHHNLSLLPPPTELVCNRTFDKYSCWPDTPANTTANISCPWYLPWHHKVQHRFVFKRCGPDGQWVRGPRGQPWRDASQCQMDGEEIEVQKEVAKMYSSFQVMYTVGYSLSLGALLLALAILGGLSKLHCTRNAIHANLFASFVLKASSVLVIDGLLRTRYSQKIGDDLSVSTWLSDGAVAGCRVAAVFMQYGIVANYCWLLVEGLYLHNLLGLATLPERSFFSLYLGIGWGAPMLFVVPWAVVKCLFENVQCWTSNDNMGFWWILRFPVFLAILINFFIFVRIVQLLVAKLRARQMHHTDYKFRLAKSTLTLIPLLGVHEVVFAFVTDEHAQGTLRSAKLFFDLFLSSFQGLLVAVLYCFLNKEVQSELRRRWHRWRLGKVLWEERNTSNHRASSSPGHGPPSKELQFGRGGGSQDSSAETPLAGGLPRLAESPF

## CC(C)C[C@H](NC(=O)[C@H](Cc1c[nH]c2ccccc12)NC(=O)[C@H](C)NC(=O)[C@@H](NC(=O)[C@H](Cc1ccccc1)NC(=O)[C@H](CCC(=O)O)NC(=O)[C@H](CCCCNC(=O)COCCOCCNC(=O)COCCOCCNC(=O)CC[C@H](NC(=O)CCCCCCCCCCCCCCCCC(=O)O)C(=O)O)NC(=O)[C@H](C)NC(=O)[C@H](CCCNC(=N)N)NC(=O)[C@H](CCCCN)NC(=O)[C@H](CCC(=O)O)NC(=O)[C@H](CCC(=O)O)NC(=O)[C@H](CC(C)C)NC(=O)[C@H](Cc1ccc(O)cc1)NC(=O)[C@H](CCCCN)NC(=O)[C@H](CO)NC(=O)[C@H](Cc1ccc(O)cc1)NC(=O)[C@H](CC(=O)O)NC(=O)[C@H](CO)NC(=O)[C@@H](NC(=O)[C@H](Cc1ccccc1)NC(=O)[C@@H](NC(=O)CNC(=O)[C@H](CCC(N)=O)NC(=O)C(C)(C)NC(=O)[C@@H](N)Cc1c[nH]cn1)[C@@H](C)O)[C@@H](C)O)C(C)C)C(=O)N[C@@H](CCC(=O)O)C(=O)N[C@@H](C)C(=O)NCC(=O)NCC(=O)N1CCC[C@H]1C(=O)N[C@@H](CO)C(=O)N[C@@H](CO)C(=O)NCC(N)=O [Compound 53] (H-H[Aib]QGTFTSDYSKYLEEKRAK([AEEA-AEEA-γGlu-C18 diacid])EFVAWLEAGGPSSG-NH2; N-terminus assumed)
  EC50: 0.316 nM

## CC(C)C[C@H](NC(=O)[C@H](Cc1c[nH]c2ccccc12)NC(=O)[C@H](C)NC(=O)[C@@H](NC(=O)[C@H](Cc1ccccc1)NC(=O)[C@H](CCC(=O)O)NC(=O)[C@H](CCCCNC(=O)COCCOCCNC(=O)COCCOCCNC(=O)CC[C@H](NC(=O)CCCCCCCCCCCCCCCCC(=O)O)C(=O)O)NC(=O)[C@H](C)NC(=O)[C@H](CCCNC(=N)N)NC(=O)[C@H](CCCCN)NC(=O)[C@H](CCC(=O)O)NC(=O)[C@H](CCC(=O)O)NC(=O)[C@H](CC(C)C)NC(=O)[C@H](Cc1ccc(O)cc1)NC(=O)[C@H](CCCCN)NC(=O)[C@H](CO)NC(=O)[C@H](Cc1ccc(O)cc1)NC(=O)[C@H](CC(=O)O)NC(=O)[C@H](CO)NC(=O)[C@@H](NC(=O)[C@H](Cc1ccccc1)NC(=O)[C@@H](NC(=O)CNC(=O)[C@H](CCC(N)=O)NC(=O)C(C)(C)NC(=O)[C@@H](N)Cc1c[nH]cn1)[C@@H](C)O)[C@@H](C)O)C(C)C)C(=O)N[C@@H](CCC(=O)O)C(=O)NCC(=O)NCC(=O)N1CCC[C@H]1C(=O)N[C@@H](CO)C(=O)N[C@@H](CO)C(=O)NCC(N)=O [Compound 74] (H-H[Aib]QGTFTSDYSKYLEEKRAK([AEEA-AEEA-γGlu-C18 diacid])EFVAWLEGGPSSG-NH2; N-terminus assumed)
  EC50: 0.725 nM

## CC[C@H](C)[C@H](NC(=O)[C@H](Cc1ccccc1)NC(=O)[C@H](CCC(=O)O)NC(=O)[C@H](CCCCNC(=O)COCCOCCNC(=O)COCCOCCNC(=O)CC[C@H](NC(=O)CCCCCCCCCCCCCCCCC(=O)O)C(=O)O)NC(=O)[C@H](C)NC(=O)[C@H](C)NC(=O)[C@H](CCCNC(=N)N)NC(=O)[C@H](CCC(=O)O)NC(=O)[C@H](CC(=O)O)NC(=O)[C@H](CC(C)C)NC(=O)[C@H](Cc1ccc(O)cc1)NC(=O)[C@H](CCCCN)NC(=O)[C@H](CO)NC(=O)[C@H](Cc1ccc(O)cc1)NC(=O)[C@H](CC(=O)O)NC(=O)[C@H](CO)NC(=O)[C@@H](NC(=O)[C@H](Cc1ccccc1)NC(=O)[C@@H](NC(=O)CNC(=O)[C@H](CCC(N)=O)NC(=O)[C@H](CO)NC(=O)[C@@H](N)Cc1c[nH]cn1)[C@@H](C)O)[C@@H](C)O)C(=O)N[C@@H](C)C(=O)N[C@@H](Cc1c[nH]c2ccccc12)C(=O)N[C@@H](CC(C)C)C(=O)N[C@@H](CCC(=O)O)C(=O)NCC(=O)NCC(=O)N1CCC[C@H]1C(=O)N[C@@H](CO)C(=O)N[C@@H](CO)C(=O)NCC(N)=O [Compound 38] (H-HSQGTFTSDYSKYLDERAAK([AEEA-AEEA-γGlu-C18 diacid])EFIAWLEGGPSSG-NH2; N-terminus assumed)
  EC50: 0.102 nM

## CCCCCCCCCCCCCCCC(=O)N[C@@H](CCC(=O)N[C@@H](CCC(=O)NCCCC[C@H](NC(=O)[C@H](CC(=O)O)NC(=O)[C@H](CO)NC(=O)[C@@H](NC(=O)[C@H](Cc1ccccc1)NC(=O)[C@@H](NC(=O)CNC(=O)[C@H](CCC(N)=O)NC(=O)C(C)(C)NC(=O)[C@@H](N)Cc1c[nH]cn1)[C@@H](C)O)[C@@H](C)O)C(=O)N[C@@H](CO)C(=O)N[C@@H](CCCCN)C(=O)N[C@@H](Cc1ccc(O)cc1)C(=O)N[C@@H](CC(C)C)C(=O)N[C@@H](CCC(=O)O)C(=O)N[C@@H](CO)C(=O)N[C@@H](CCC(=O)O)C(=O)N[C@@H](CCCNC(=N)N)C(=O)N[C@@H](C)C(=O)N[C@@H](CCCCN)C(=O)N[C@@H](CCC(=O)O)C(=O)N[C@@H](Cc1ccccc1)C(=O)N[C@H](C(=O)N[C@@H](CCC(=O)O)C(=O)N[C@@H](Cc1c[nH]c2ccccc12)C(=O)N[C@@H](CC(C)C)C(=O)N[C@H](C(=O)N[C@@H](CCCCN)C(=O)N[C@@H](CCC(=O)O)C(=O)NCC(=O)NCC(=O)N1CCC[C@H]1C(=O)N[C@@H](CO)C(=O)N[C@@H](CO)C(=O)NCC(N)=O)C(C)C)C(C)C)C(=O)O)C(=O)O [Compound 19] (HELM PEPTIDE1{H.[Aib].Q.G.T.F.T.S.D.K.S.K.Y.L.E.S.E.R.A.K.E.F.V.E.W.L.V.K.E.G.G.P.S.S.G.[am]}|PEPTIDE2{[CCCCCCCCCCCCCCCC(=O)[*:2]].[gGlu].[gGlu]}$PEPTIDE1,PEPTIDE2,10:R3-3:R2$$$V2.0; N-terminus assumed)
  EC50: 6.25 nM

## CCCCCCCCCCCCCCCC(=O)N[C@@H](CCC(=O)N[C@@H](CCC(=O)NCCCC[C@H](NC(=O)[C@H](C)NC(=O)[C@H](C)NC(=O)[C@H](CCCNC(=N)N)NC(=O)[C@H](CCC(=O)O)NC(=O)[C@H](CC(=O)O)NC(=O)[C@H](CC(C)C)NC(=O)[C@H](Cc1ccc(O)cc1)NC(=O)[C@H](CCCCN)NC(=O)[C@H](CO)NC(=O)[C@H](Cc1ccc(O)cc1)NC(=O)[C@H](CC(=O)O)NC(=O)[C@H](CO)NC(=O)[C@@H](NC(=O)[C@H](Cc1ccccc1)NC(=O)[C@@H](NC(=O)CNC(=O)[C@H](CCC(N)=O)NC(=O)C(C)(C)NC(=O)[C@@H](N)Cc1c[nH]cn1)[C@@H](C)O)[C@@H](C)O)C(=O)N[C@@H](CCC(=O)O)C(=O)N[C@@H](Cc1ccccc1)C(=O)N[C@H](C(=O)N[C@@H](C)C(=O)N[C@@H](Cc1c[nH]c2ccccc12)C(=O)N[C@@H](CC(C)C)C(=O)N[C@@H](CCC(=O)O)C(=O)N[C@@H](C)C(=O)NCC(=O)NCC(=O)N1CCC[C@H]1C(=O)N[C@@H](CO)C(=O)N[C@@H](CO)C(=O)NCC(N)=O)C(C)C)C(=O)O)C(=O)O [Compound 15] (HELM PEPTIDE1{H.[Aib].Q.G.T.F.T.S.D.Y.S.K.Y.L.D.E.R.A.A.K.E.F.V.A.W.L.E.A.G.G.P.S.S.G.[am]}|PEPTIDE2{[CCCCCCCCCCCCCCCC(=O)[*:2]].[gGlu].[gGlu]}$PEPTIDE1,PEPTIDE2,20:R3-3:R2$$$V2.0; N-terminus assumed)
  EC50: 0.148 nM

## CC(C)C[C@H](NC(=O)[C@H](Cc1c[nH]c2ccccc12)NC(=O)[C@H](CCC(=O)O)NC(=O)[C@@H](NC(=O)[C@H](Cc1ccccc1)NC(=O)[C@H](CCC(=O)O)NC(=O)[C@H](CCCCNC(=O)COCCOCCNC(=O)COCCOCCNC(=O)CC[C@H](NC(=O)CCCCCCCCCCCCCCCCC(=O)O)C(=O)O)NC(=O)[C@H](C)NC(=O)[C@H](C)NC(=O)[C@H](CCCNC(=N)N)NC(=O)[C@H](CCC(=O)O)NC(=O)[C@H](CCC(=O)O)NC(=O)[C@H](CC(C)C)NC(=O)[C@H](Cc1ccc(O)cc1)NC(=O)[C@H](CCCCN)NC(=O)[C@H](CO)NC(=O)[C@H](Cc1ccc(O)cc1)NC(=O)[C@H](CC(=O)O)NC(=O)[C@H](CO)NC(=O)[C@@H](NC(=O)[C@H](Cc1ccccc1)NC(=O)[C@@H](NC(=O)CNC(=O)[C@H](CCC(N)=O)NC(=O)C(C)(C)NC(=O)[C@@H](N)Cc1c[nH]cn1)[C@@H](C)O)[C@@H](C)O)C(C)C)C(=O)N[C@@H](CCC(=O)O)C(=O)NCC(=O)NCC(=O)N1CCC[C@H]1C(=O)N[C@@H](CO)C(=O)N[C@@H](CO)C(=O)NCC(N)=O [Compound 32] (H-H[Aib]QGTFTSDYSKYLEERAAK([AEEA-AEEA-γGlu-C18 diacid])EFVEWLEGGPSSG-NH2; N-terminus assumed)
  EC50: 0.077 nM

## CC[C@H](C)[C@H](NC(=O)[C@H](Cc1ccccc1)NC(=O)[C@H](CCC(=O)O)NC(=O)[C@H](CCCCNC(=O)COCCOCCNC(=O)COCCOCCNC(=O)CC[C@H](NC(=O)CCCCCCCCCCCCCCCCCCC(=O)O)C(=O)O)NC(=O)[C@H](C)NC(=O)[C@H](CCCCN)NC(=O)[C@H](CCCNC(=N)N)NC(=O)[C@H](CCC(=O)O)NC(=O)[C@H](CCC(=O)O)NC(=O)[C@H](CC(C)C)NC(=O)[C@H](Cc1ccc(O)cc1)NC(=O)[C@H](CCCCN)NC(=O)[C@H](CO)NC(=O)[C@H](Cc1ccc(O)cc1)NC(=O)[C@H](CC(=O)O)NC(=O)[C@H](CO)NC(=O)[C@@H](NC(=O)[C@H](Cc1ccccc1)NC(=O)[C@@H](NC(=O)CNC(=O)[C@H](CCC(N)=O)NC(=O)C(C)(C)NC(=O)[C@@H](N)Cc1c[nH]cn1)[C@@H](C)O)[C@@H](C)O)C(=O)N[C@@H](C)C(=O)N[C@@H](Cc1c[nH]c2ccccc12)C(=O)N[C@@H](CC(C)C)C(=O)N[C@@H](CCC(=O)O)C(=O)NCC(=O)NCC(=O)N1CCC[C@H]1C(=O)N[C@@H](CO)C(=O)N[C@@H](CO)C(=O)NCC(N)=O [Compound 68] (H-H[Aib]QGTFTSDYSKYLEERKAK([AEEA-AEEA-γGlu-C20 diacid])EFIAWLEGGPSSG-NH2; N-terminus assumed)
  EC50: 0.314 nM

## CC[C@H](C)[C@H](NC(=O)[C@H](Cc1ccccc1)NC(=O)[C@H](CCC(=O)O)NC(=O)[C@H](CCCCN)NC(=O)[C@H](C)NC(=O)[C@H](C)NC(=O)[C@H](CCCNC(=N)N)NC(=O)[C@H](CCC(=O)O)NC(=O)[C@H](CC(=O)O)NC(=O)[C@H](CC(C)C)NC(=O)[C@H](Cc1ccc(O)cc1)NC(=O)[C@H](CCCCN)NC(=O)[C@H](CO)NC(=O)[C@H](CCCCNC(=O)COCCOCCNC(=O)COCCOCCNC(=O)CC[C@H](NC(=O)CCCCCCCCCCCCCCCCC(=O)O)C(=O)O)NC(=O)[C@H](CC(=O)O)NC(=O)[C@H](CO)NC(=O)[C@@H](NC(=O)[C@H](Cc1ccccc1)NC(=O)[C@@H](NC(=O)CNC(=O)[C@H](CCC(N)=O)NC(=O)[C@H](CO)NC(=O)[C@@H](N)Cc1c[nH]cn1)[C@@H](C)O)[C@@H](C)O)C(=O)N[C@@H](C)C(=O)N[C@@H](Cc1c[nH]c2ccccc12)C(=O)N[C@@H](CC(C)C)C(=O)N[C@@H](CCC(=O)O)C(=O)N[C@@H](C)C(=O)NCC(=O)NCC(=O)N1CCC[C@H]1C(=O)N[C@@H](CO)C(=O)N[C@@H](CO)C(=O)NCC(N)=O [Compound 79] (H-HSQGTFTSDK([AEEA-AEEA-γGlu-C18 diacid])SKYLDERAAKEFIAWLEAGGPSSG-NH2; N-terminus assumed)
  EC50: 0.025 nM
